In the NIST ThermoML archive (doi:10.1016/j.tca.2016.05.007):
Numbers after ± are expanded uncertainties.

Test: molar heat capacity at constant pressure
Conditions: 101.33 kPa, Small (less than 1 g) adiabatic calorimetry

COc1ccc(C2(c3ccc(OC)c(C)c3)OC(=O)c3ccccc32)cc1C [3,3-bis(4-methoxy-3-methylphenyl)-1(3H)-isobenzofuranone]
Conditions	molar heat capacity at constant pressure [J/K/mol]
5.802 K, Glass	2.967 ± 0.084
6.011 K, Crystal	1.658 ± 0.053
6.232 K, Glass	3.526 ± 0.096
6.486 K, Crystal	2.176 ± 0.065
6.689 K, Glass	4.234 ± 0.11
6.977 K, Crystal	2.797 ± 0.078
7.179 K, Glass	5.003 ± 0.13
7.498 K, Crystal	3.461 ± 0.093
7.715 K, Glass	5.872 ± 0.15
8.061 K, Crystal	4.249 ± 0.11
8.282 K, Glass	6.885 ± 0.17
8.65 K, Crystal	5.21 ± 0.13
8.874 K, Glass	8.044 ± 0.2
9.274 K, Crystal	6.207 ± 0.15
9.483 K, Glass	9.187 ± 0.22
9.939 K, Crystal	7.418 ± 0.13
10.1 K, Glass	10.44 ± 0.17
10.63 K, Crystal	8.764 ± 0.15
10.73 K, Glass	11.74 ± 0.19
11.34 K, Crystal	10.21 ± 0.17
11.35 K, Glass	13.13 ± 0.21
11.98 K, Glass	14.45 ± 0.23
12.03 K, Crystal	11.58 ± 0.18
12.62 K, Glass	15.86 ± 0.24
12.71 K, Crystal	13.08 ± 0.2
13.28 K, Glass	17.41 ± 0.27
13.41 K, Crystal	14.58 ± 0.23
13.96 K, Glass	18.93 ± 0.28
14.13 K, Crystal	16.23 ± 0.25
14.66 K, Glass	20.58 ± 0.3
14.89 K, Crystal	18.08 ± 0.27
15.39 K, Glass	22.28 ± 0.33
15.68 K, Crystal	19.91 ± 0.29
16.15 K, Glass	24.12 ± 0.35
16.49 K, Crystal	21.8 ± 0.31
16.94 K, Glass	25.94 ± 0.37
17.04 K, Crystal	22.93 ± 0.33
17.66 K, Glass	27.62 ± 0.39
17.91 K, Crystal	25.25 ± 0.35
18.49 K, Glass	29.63 ± 0.41
18.78 K, Crystal	27.27 ± 0.38
19.34 K, Glass	31.77 ± 0.43
19.67 K, Crystal	29.41 ± 0.4
20.21 K, Glass	33.84 ± 0.45
20.58 K, Crystal	31.37 ± 0.42
21.11 K, Glass	35.96 ± 0.48
21.5 K, Crystal	33.68 ± 0.44
22.03 K, Glass	38.09 ± 0.5
22.45 K, Crystal	35.73 ± 0.46
23 K, Glass	40.41 ± 0.52
23.44 K, Crystal	38.11 ± 0.49
24.02 K, Glass	42.79 ± 0.54
24.48 K, Crystal	40.68 ± 0.51
25.08 K, Glass	45.25 ± 0.56
25.54 K, Crystal	43.24 ± 0.54
26.16 K, Glass	47.65 ± 0.58
26.63 K, Crystal	45.57 ± 0.56
27.26 K, Glass	50.09 ± 0.6
27.74 K, Crystal	48.13 ± 0.58
28.38 K, Glass	52.99 ± 0.63
28.86 K, Crystal	51.61 ± 0.61
29.5 K, Glass	56.69 ± 0.66
29.99 K, Crystal	54.09 ± 0.35
30.63 K, Glass	57.45 ± 0.3
31.12 K, Crystal	55.63 ± 0.29
31.76 K, Glass	60.08 ± 0.31
32.25 K, Crystal	58.38 ± 0.31
32.9 K, Glass	63.09 ± 0.33
33.39 K, Crystal	61.18 ± 0.32
34.06 K, Glass	65.62 ± 0.34
34.56 K, Crystal	63.78 ± 0.33
35.25 K, Glass	68.43 ± 0.34
35.74 K, Crystal	66.5 ± 0.34
36.45 K, Glass	70.84 ± 0.35
36.95 K, Crystal	69.15 ± 0.35
37.67 K, Glass	73.54 ± 0.36
38.17 K, Crystal	71.7 ± 0.36
38.9 K, Glass	75.9 ± 0.37
39.4 K, Crystal	74.01 ± 0.37
40.15 K, Glass	78.39 ± 0.38
40.66 K, Crystal	76.39 ± 0.38
41.41 K, Glass	80.76 ± 0.39
41.94 K, Crystal	79 ± 0.39
42.68 K, Glass	83.53 ± 0.4
43.23 K, Crystal	81.44 ± 0.4
43.93 K, Glass	85.97 ± 0.41
44.51 K, Crystal	83.92 ± 0.41
45.19 K, Glass	88.07 ± 0.42
45.78 K, Crystal	86.54 ± 0.42
46.45 K, Glass	90.22 ± 0.43
47.06 K, Crystal	89.06 ± 0.43
47.71 K, Glass	93.04 ± 0.44
48.33 K, Crystal	91.12 ± 0.43
48.97 K, Glass	95.25 ± 0.45
49.6 K, Crystal	94.6 ± 0.45
50.23 K, Glass	98.01 ± 0.46
50.87 K, Crystal	97.15 ± 0.46
51.48 K, Glass	100.37 ± 0.47
52.14 K, Crystal	99.73 ± 0.47
52.74 K, Glass	103.27 ± 0.48
53.41 K, Crystal	102.49 ± 0.48
54 K, Glass	105.75 ± 0.49
54.68 K, Crystal	105 ± 0.49
55.27 K, Glass	108.28 ± 0.5
55.95 K, Crystal	107.6 ± 0.5
56.53 K, Glass	110.76 ± 0.51
57.22 K, Crystal	109.68 ± 0.51
57.79 K, Glass	113.22 ± 0.52
58.5 K, Crystal	112.22 ± 0.52
59.06 K, Glass	115.64 ± 0.53
59.77 K, Crystal	114.59 ± 0.53
60.33 K, Glass	117.82 ± 0.54
61.05 K, Crystal	116.87 ± 0.54
61.6 K, Glass	120.17 ± 0.55
62.33 K, Crystal	119.39 ± 0.55
62.87 K, Glass	122.44 ± 0.56
63.61 K, Crystal	121.85 ± 0.56
64.15 K, Glass	124.78 ± 0.57
64.89 K, Crystal	123.86 ± 0.57
65.43 K, Glass	126.76 ± 0.58
66.18 K, Crystal	125.9 ± 0.57
66.72 K, Glass	129.06 ± 0.59
67.47 K, Crystal	128.08 ± 0.58
68.01 K, Glass	131.4 ± 0.6
68.77 K, Crystal	130.54 ± 0.59
69.3 K, Glass	133.63 ± 0.61
70.07 K, Crystal	132.99 ± 0.6
70.6 K, Glass	136.05 ± 0.62
71.38 K, Crystal	135.25 ± 0.61
71.91 K, Glass	138.21 ± 0.62
72.69 K, Crystal	137.49 ± 0.62
73.22 K, Glass	140.28 ± 0.63
74.01 K, Crystal	139.48 ± 0.63
74.59 K, Glass	142.77 ± 0.64
75.33 K, Crystal	141.75 ± 0.64
76.03 K, Glass	145.08 ± 0.65
76.66 K, Crystal	144.1 ± 0.65
77.47 K, Glass	147.57 ± 0.66
77.99 K, Crystal	146.27 ± 0.66
78.91 K, Glass	149.7 ± 0.67
79.33 K, Crystal	148.82 ± 0.67
80.36 K, Glass	152.24 ± 0.68
80.67 K, Crystal	150.88 ± 0.68
81.81 K, Glass	154.61 ± 0.69
82.09 K, Crystal	152.82 ± 0.68
83.27 K, Glass	156.85 ± 0.7
83.57 K, Crystal	155.34 ± 0.69
84.73 K, Glass	159.35 ± 0.71
85.06 K, Crystal	157.59 ± 0.7
86.19 K, Glass	161.67 ± 0.72
86.55 K, Crystal	160.21 ± 0.71
87.66 K, Glass	164.03 ± 0.73
88.04 K, Crystal	162.51 ± 0.72
89.14 K, Glass	166.13 ± 0.74
89.54 K, Crystal	164.72 ± 0.73
90.62 K, Glass	168.74 ± 0.71
91.05 K, Crystal	167.41 ± 0.7
92.11 K, Glass	171.18 ± 0.71
92.56 K, Crystal	169.71 ± 0.71
93.61 K, Glass	173.56 ± 0.72
94.08 K, Crystal	172.05 ± 0.72
95.11 K, Glass	176.28 ± 0.73
95.6 K, Crystal	174.26 ± 0.72
96.62 K, Glass	178.27 ± 0.74
97.14 K, Crystal	176.64 ± 0.73
98.14 K, Glass	180.03 ± 0.74
98.67 K, Crystal	178.97 ± 0.74
99.67 K, Glass	182.72 ± 0.75
100.22 K, Crystal	181.39 ± 0.75
101.2 K, Glass	185 ± 0.76
101.77 K, Crystal	183.97 ± 0.76
102.74 K, Glass	186.83 ± 0.77
103.33 K, Crystal	186.52 ± 0.77
104.29 K, Glass	189.85 ± 0.78
104.9 K, Crystal	188.69 ± 0.77
105.85 K, Glass	192.15 ± 0.79
106.48 K, Crystal	190.79 ± 0.78
107.42 K, Glass	194.15 ± 0.79
108.07 K, Crystal	193.1 ± 0.79
109 K, Glass	196.63 ± 0.8
109.72 K, Crystal	195.77 ± 0.8
110.58 K, Glass	199.21 ± 0.81
111.45 K, Crystal	198.35 ± 0.81
112.18 K, Glass	201.62 ± 0.82
113.19 K, Crystal	200.89 ± 0.82
113.78 K, Glass	204.03 ± 0.83
114.95 K, Crystal	203.39 ± 0.82
115.4 K, Glass	206.27 ± 0.83
116.73 K, Crystal	205.7 ± 0.83
117.1 K, Glass	208.63 ± 0.84
118.52 K, Crystal	209.32 ± 0.85
118.89 K, Glass	211.16 ± 0.85
120.34 K, Crystal	211.71 ± 0.85
120.69 K, Glass	213.89 ± 0.86
